Entries after “also recorded” stand apart in the source; their conditions may differ.
How the values were obtained:
[1] = system: H460 NSCLC human xenograft; test: H460 NSCLC human xenograft model, tumor growth; format: in vivo, NOD/SCID mice; details: for median tumor volume: day 24, i.p. daily; for median tumor volume / tumor weight smaller than vehicle: losartan 50 mg/kg, astemizole 10 mg/kg; for tumor weight smaller than vehicle: last day of study, i.p. daily, p<0.01
[2] = mouse, in vivo
[3] = system: non-cancer WI38 fibroblast cell line; test: MTT proliferation assay in WI38 fibroblasts; format: cell-based; details: for effect on WI38 proliferation: compared with the NSCLC lines
[4] = system: NSCLC cancer cell lines H1299, A459, H460; test: MTT proliferation assay, NSCLC cell panel; format: cell-based, Human; details: for EC50: Homo sapiens
[5] = system: H460; test: MTT proliferation assay in H460 cells; format: cell-based, Human; details: 3 days
[6] = system: H460 NSCLC human xenograft; test: Histopathology of resected tumors, mitotic index; format: in vivo, NOD/SCID mice

SMILES | median tumor volume [1] | tumor weight smaller than vehicle [1] [%] | animal's body weight [2] | EC50 [4] [µM] | effect on WI38 proliferation [3] | other results
COc1ccc(CCN2CCC(Nc3nc4ccccc4n3Cc3ccc(F)cc3)CC2)cc1 [Astemizole] | 2,810 mm^3 | 15 | no significant alteration | – | – | number of mice with tumors that weighed less than 3.2 g ([1]; astemizole group n = 9, smallest vehicle tumor 3.2 g): Three
Cc1nc(Nc2ncc(C(=O)Nc3c(C)cccc3Cl)s2)cc(N2CCN(CCO)CC2)n1 [Dasatinib] | – | – | – | – | – | EC50 ([3]; WI38, MTT, 3 days): sub-micromolar
C=C(c1ccc(C(=O)O)cc1)c1cc2c(cc1C)C(C)(C)CCC2(C)C [Bexarotene] | – | – | – | ~50 | weaker effect on WI38 proliferation | –
CN1C[C@H](C(=O)N[C@]2(C)O[C@@]3(O)[C@@H]4CCCN4C(=O)[C@H](Cc4ccccc4)N3C2=O)C=C2c3cccc4[nH]cc(c34)C[C@H]21 [Ergotamine] | – | – | – | – | significantly less effect on WI38 | EC50 [5]: 26 ± 1 µM
CCCCc1nc(Cl)c(CO)n1Cc1ccc(-c2ccccc2-c2nn[nH]n2)cc1 [Losartan] | 2,463 mm^3 | 50 | no significant alteration | – | – | G2M arrest in the cell cycle ([6]; histopathology of resected tumors): significant propensity to cause G2M arrest; also recorded: induced more significant G2M arrest; mitotic index (MI) ([6]; ratio of mitotic to non-mitotic cells in tumor tissue, vehicle 7): 18; cytotoxicity ([4]; concentrations up to 100 μM): very little cytotoxicity; number of mice with tumors that weigh less than 2.5 g ([1]; losartan group n = 10, none of the vehicle): Four
CS(=O)(=O)CCNCc1ccc(-c2ccc3ncnc(Nc4ccc(OCc5cccc(F)c5)c(Cl)c4)c3c2)o1 [Lapatinib] | – | – | – | 30 to 40 | – | –

From article PMC4016822 (Molecular bioSystems, 2014)
